The source of these data is patent US20110046225A1, “Pharmaceutical formulation containing palmitoyl ethanolamide and stearoyl ethanolamide” (VERMONT ITALIA SRL, priority 2008, published 2011).

One data set has as its target receptor GPR55 (Homo sapiens, UniProt Q9Y2T6). The conditions noted are these: Ryberg et al. 2007; cited from earlier work.
Another data set has as its system RBL-2H3 cells. The data set is described as follows: inhibition of β-hexosaminidase release in IgE/DNP-stimulated RBL-2H3 mastocyte cells. The class given is cell-based. The conditions noted are these: stimulated RBL-2H3 cells, culture medium; for INHIBITION OF β-HEXOSAMINIDASE RELEASE (% on test): 10 μM. From the text:
More specifically, a RBL-2H3 mastocyte cell line was used to express high-affinity receptors for the IgE immunoglobulins. The interaction of the antigens with the IgE molecules present on the cell surface stimulates secretion by said cells of the pro-inflammatory contents of their intracytoplasmic granules, amongst which significant quantities of: histamine, leukotrienes, prostaglandins and TNF-alfa. The RBL-2H3 therefore represent an excellent cell module for the study of the mechanisms of exocytosis and release of the inflammatory mediators and of the relative modulation, as the case may be. In particular, measurement of the activity by the β-hexosaminidase enzyme was performed, the release of which correlates positively with the secretion of very strong pro-inflammatory mediators such as histamine and TNF-alfa. As already specified, a RBL-2H3 mastocyte cell line was used to express high-affinity receptors for the IgE immunoglobulins, whilst the assessment of cell vitality was recorded by way of the MTT method. The RBL-2H3 cell culture was started with a density amounting to 20,000 cells/well (96 wells) and incubated with IgE-anti-DNP. After about one hour, the antigen (DNP) was introduced into the culture, then after another 30 minutes the culture medium was harvested. Measurement of the activity by the β-hexosaminidase enzyme was performed on the harvested […], the release of which correlated positively with the secretion of very strong pro-inflammatory mediators such as histamine and TNF-alfa. A reduction of the enzymatic activities in the culture medium signifies minor cell degranulation and thus […]. The molecules according to the patent application herein were solubilised in DMSO and both added in variable concentrations to the cell cultures 1 hour prior to the introduction of the antigen.

The conditions of data set [1]: U.S. Pat. No. 5,990,170; 5,679,667; 5,506,224; cited from earlier work.
The conditions of data set [2]: cited from earlier work.

Chain of receptor GPR55 (Q9Y2T6 whole entry): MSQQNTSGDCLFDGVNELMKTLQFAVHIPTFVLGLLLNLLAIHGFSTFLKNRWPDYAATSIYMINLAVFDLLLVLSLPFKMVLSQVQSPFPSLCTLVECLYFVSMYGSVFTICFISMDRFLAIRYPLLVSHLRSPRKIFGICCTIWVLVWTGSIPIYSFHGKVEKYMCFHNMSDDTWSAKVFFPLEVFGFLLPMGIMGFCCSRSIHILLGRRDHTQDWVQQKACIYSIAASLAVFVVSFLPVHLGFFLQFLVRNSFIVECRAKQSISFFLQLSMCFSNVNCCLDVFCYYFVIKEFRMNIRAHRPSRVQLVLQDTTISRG

On to `CCCCCc1cc(O)c2c(c1)OC(C)(C)[C@@H]1CCC(C)=C[C@@H]21` [THC, delta-9-tetrahydrocannabinol, reference compound], for which, at receptor GPR55, the “affinity for GPR55” value was “nano-mole affinity array”.
The term inhibition denotes the share of the control response that was lost under treatment. As for `CCCCCCCCCCCCCCCC(=O)NCCO` [Palmitoyl ethanolamide (PEA), palmitoyl ethanolamide], the “affinity for GPR55” value at receptor GPR55 is “nano-mole affinity array”. The inhibition at 10 µM in the data set on RBL-2H3 cells (Rattus norvegicus, read-out: INHIBITION OF β-HEXOSAMINIDASE RELEASE (% on test)) is 23.6%.
For the compound `CCCCCCCCCCCCCCCCCC(=O)NCCO` [Stearoyl ethanolamide (SEA), Stearoyl ethanolamide], the “anti-inflammatory activity relative to PEA” value in data set [1] is “much less active than the lower homologue PEA”. Besides, the “solubility in aqueous environments” value in data set [2] is listed as “extremely scarce”. In addition, the “INHIBITION OF β-HEXOSAMINIDASE RELEASE (% on test)” value in the data set on RBL-2H3 cells turned out to be 25.3%.
`C[C@@H]1C[C@H]2[C@@H]3CCC4=CC(=O)C=C[C@]4(C)[C@@]3(F)[C@@H](O)C[C@]2(C)[C@@]1(O)C(=O)CO` [Desametazone, reference compound]: in the data set on RBL-2H3 cells, the “INHIBITION OF β-HEXOSAMINIDASE RELEASE (% on test)” value was found to be 40.2%.
